Measured values: US12012411B2, “Viral replication inhibitors” (Katholieke Universiteit Leuven, priority 2011, dated 2024)

Tests used:
[1] = tested on: DENV-2 NGC; test: Antiviral activity against DENV-2 NGC in Vero-B cells (viral RNA load by RT-qPCR); format: cell-based, Dengue virus; conditions: Dengue virus, DENV2, Vero B, DENV-2 in Vero-B cells; inhibition of viral RNA replication by 50% (Table 3)
[2] = tested on: DENV-1 Djibouti strain D1/H/IMTSSA/98/606; test: Antiviral activity against DENV-1 in Vero-B cells (viral RNA load by RT-qPCR); format: cell-based, Dengue virus; conditions: Dengue virus, DENV1, Vero B
[3] = tested on: DENV-3 strain H87 prototype; test: Antiviral activity against DENV-3 in Vero-B cells (viral RNA load by RT-qPCR); format: cell-based, Dengue virus; conditions: Dengue virus, DENV3, Vero B
[4] = tested on: DENV-4 strain Dak HD 34 460; test: Antiviral activity against DENV-4 in Vero-B cells (viral RNA load by RT-qPCR); format: cell-based, Dengue virus; conditions: Dengue virus, DENV4, Vero B
[5] = in vitro; conditions: African green monkey; for CC50 at 4 days: uninfected quiescent Vero-B cells

| Compound | EC50 [1] | EC50 [2] | EC50 [3] | EC50 [4] | CC50 at 4 days [5] | CC50 [5] |
| --- | --- | --- | --- | --- | --- | --- |
| COc1cccc(NC(C(=O)c2c[nH]c3ccc(F)cc23)c2cccnc2)c1 (stereo not shown) [CPD-151] | 90 nM | 530 nM | 2100 nM | 4870 nM | > 133000 nM |  |
| COc1cccc(NC(C(=O)c2c[nH]c3cc(F)ccc23)c2cccnc2)c1 (stereo not shown) [CPD-152] | 90 nM | 2050 nM | 990 nM | 5620 nM | 75000 nM |  |
| COc1cccc(NC(C(=O)c2c[nH]c3c(F)cccc23)c2cccnc2)c1 (stereo not shown) [CPD-153] | 290 nM | 6260 nM | 2260 nM | 3680 nM | > 133000 nM |  |
| COc1cccc(NC(C(=O)c2c[nH]c3ccc(F)cc23)c2ccc(OC)nc2)c1 (stereo not shown) [CPD-154] | 60 nM | 3920 nM | 4400 nM | 9870 nM | 44000 nM |  |
| COc1cc(NC(C(=O)c2cn(CCCO)c3ccc(F)cc23)c2ccccc2)cc(OC)c1 (stereo not shown) [CPD-156] | 20 nM | 610 nM | 2120 nM | 3370 nM |  | 11000 nM |
| COc1cncc(NC(C(=O)c2c[nH]c3cc(F)ccc23)c2ccccc2)c1 (stereo not shown) [CPD-157] | 50 nM | 1310 nM | 850 nM | 5100 nM | 15000 nM |  |
| COc1cncc(NC(C(=O)c2c[nH]c3ccccc23)c2ccc(OC)nc2)c1 (stereo not shown) [CPD-158] | 90 nM | 2500 nM | 2190 nM | 7200 nM | 63000 nM |  |
| COc1cncc(NC(C(=O)c2c[nH]c3ccccc23)c2ccc(C#N)cc2)c1 (stereo not shown) [CPD-159] | 110 nM | 1480 nM | 3160 nM | 6860 nM | 67000 nM |  |
| COc1cccc(NC(C(=O)c2nn(C)c3ccccc23)c2ccccc2)c1 (stereo not shown) [CPD-203] | 730 nM | 5090 nM | 5060 nM | 5320 nM | > 134000 nM |  |
| COc1cc(NC(C(=O)c2c[nH]c3ccc(F)cc23)c2ccc(OC)nc2)cc(OC)c1 (stereo not shown) [CPD-206] | 20 nM | 370 nM | 670 nM | 1520 nM | 12000 nM |  |
| COc1cccc(NC(C(=O)c2c[nH]c3cc(F)ccc23)c2ccc(OC)nc2)c1 (stereo not shown) [CPD-213] | 60 nM | 810 nM | 2540 nM | 2850 nM | 15000 nM |  |
| COc1cccc(NC(C(=O)c2c[nH]c3ccccc23)c2ccc(F)nc2)c1 (stereo not shown) [CPD-214] | 30 nM | 150 nM | 990 nM | 4160 nM | 16000 nM |  |
| COc1cccc(NC(C(=O)c2c[nH]c3c(OC)cccc23)c2ccccc2)c1 (stereo not shown) [CPD-222] | 130 nM | 1810 nM | 3270 nM | 3140 nM | > 129000 nM |  |
| COc1cccc(NC(C(=O)c2c[nH]c3ccc(S(C)(=O)=O)cc23)c2ccccc2)c1 (stereo not shown) [CPD-229] | 2400 nM | 2810 nM | 43000 nM | 7550 nM | > 115000 nM |  |
| COc1cc(NC(C(=O)c2c[nH]c3nc(C)ccc23)c2ccccc2)cc(OC)c1 (stereo not shown) [CPD-232] | 100 nM | 850 nM | 2690 nM | 1150 nM | > 125000 nM |  |
| COc1cc(NC(C(=O)c2c[nH]c3ccccc23)c2ccc(C#N)cc2)cc(OC)c1 (stereo not shown) [CPD-233] | 10 nM | 220 nM | 1290 nM | 3090 nM | 11000 nM |  |
| COc1cc(NC(C(=O)c2c[nH]c3ncc(F)cc23)c2ccccc2)cc(OC)c1 (stereo not shown) [CPD-234] | 50 nM | 760 nM | 2000 nM | 4190 nM | 15000 nM |  |
| COc1cccc(NC(C(=O)c2c[nH]c3ccccc23)c2cn3ncccc3n2)c1 (stereo not shown) [CPD-238] | 40 nM | 540 nM | 1650 nM | 10200 nM | > 125000 nM |  |
| COc1cccc(NC(C(=O)c2c[nH]c3ccccc23)c2cnc(OC)nc2)c1 (stereo not shown) [CPD-240] | 110 nM | 1200 nM | 2380 nM | 8730 nM | 63000 nM |  |
| COc1cncc(NC(C(=O)c2c[nH]c3ccc(F)cc23)c2ccc(OC)nc2)c1 (stereo not shown) [CPD-241] | 40 nM | 620 nM | 620 nM | 5690 nM | 58000 nM |  |
| COc1cccc(NC(C(=O)c2cn(CCO)c3cc(F)ccc23)c2ccccc2)c1 (stereo not shown) [CPD-245] | 80 nM | 700 nM | 2380 nM | 3010 nM |  | 16000 nM |
| COc1cccc(NC(C(=O)c2c[nH]c3ccccc23)c2cnc(OC)cn2)c1 (stereo not shown) [CPD-249] | 100 nM | 1130 nM | 4570 nM | 1980 nM | 53000 nM |  |

| Compound | EC50 [1] | EC50 [2] | EC50 [3] | EC50 [4] | CC50 at 4 days [5] | CC50 [5] |
| --- | --- | --- | --- | --- | --- | --- |
| COc1cc(NC(C(=O)c2c[nH]c3ccccc23)c2ccccc2)cnc1OC (stereo not shown) [CPD-256] | 190 nM | 6760 nM | 4490 nM | 19900 nM | 83000 nM |  |
| COc1cccc(NC(C(=O)c2nn(C)c3ccccc23)c2ccc(C#N)cc2)c1 (stereo not shown) [CPD-260] | 80 nM | 6630 nM | 22600 nM | 5440 nM | > 126000 nM |  |
| COc1cc(NC(C(=O)c2nn(C)c3ccccc23)c2ccccc2)cc(OC)c1 (stereo not shown) [CPD-265] | 20 nM | 290 nM | 1640 nM | 4880 nM | > 124000 nM |  |
| COc1cccc(NC(C(=O)c2nn(C)c3cc(OC)ccc23)c2ccccc2)c1 (stereo not shown) [CPD-266] | 60 nM | 700 nM | 4320 nM | 3510 nM | > 124000 nM |  |
| COc1cccc(NC(C(=O)c2nn(C)c3ccccc23)c2cc3ccccn3n2)c1 (stereo not shown) [CPD-273] | 320 nM | 580 nM | 7660 nM | 8410 nM | > 122000 nM |  |
| COc1cc(CO)cc(NC(C(=O)c2nn(C)c3ccccc23)c2ccccc2)c1 (stereo not shown) [CPD-278] | 270 nM | 2840 nM | 13200 nM | 5800 nM | > 125000 nM |  |
| COc1cc(NC(C(=O)c2nn(C)c3ccccc23)c2cccnc2)cc(OC)c1 (stereo not shown) [CPD-279] | 180 nM | 620 nM | 890 nM | 8660 nM | > 124000 nM |  |
| COc1cccc(NC(C(=O)c2nn(C)c3cc(F)ccc23)c2ccccc2)c1 (stereo not shown) [CPD-281] | 210 nM | 850 nM | 5570 nM | 1120 nM | > 128000 nM |  |
| COc1cc(CO)cc(NC(C(=O)c2c[nH]c3ccccc23)c2cccnc2)c1 (stereo not shown) [CPD-282] | 260 nM | 1240 nM | 3120 nM | 13100 nM | > 128000 nM |  |
| COc1cc(CO)cc(NC(C(=O)c2c[nH]c3ccccc23)c2ccc(OC)nc2)c1 (stereo not shown) [CPD-283] | 170 nM | 2830 nM | 7140 nM | 7890 nM | 56000 nM |  |
| COc1cc(CO)cc(NC(C(=O)c2c[nH]c3cc(F)ccc23)c2ccccc2)c1 (stereo not shown) [CPD-285] | 40 nM | 840 nM | 2200 nM | 2310 nM | 50000 nM |  |
| COc1cc(CO)cc(NC(C(=O)c2c[nH]c3ccccc23)c2cnc(OC)cn2)c1 (stereo not shown) [CPD-288] | 120 nM | 1900 nM | 2700 nM | 6330 nM | 77000 nM |  |
| COc1cc(CO)cc(NC(C(=O)c2c[nH]c3ccccc23)c2cc3ccccn3n2)c1 (stereo not shown) [CPD-289] | 60 nM | 800 nM | 910 nM | 10200 nM | 68000 nM |  |
| COc1cc(NC(C(=O)c2c[nH]c3ccccc23)c2ccc(OC)nc2)cc(OCCO)c1 (stereo not shown) [CPD-291] | 60 nM | 800 nM | 800 nM | 8670 nM | 53000 nM |  |
| COc1cc(NC(C(=O)c2c[nH]c3ccccc23)c2cnc(OC)cn2)cc(OCCO)c1 (stereo not shown) [CPD-292] | 60 nM | 830 nM | 1110 nM | 7080 nM | 68000 nM |  |
| COc1cccc(NC(C(=O)c2c[nH]c3ccc(F)cc23)c2cnc(OC)cn2)c1 (stereo not shown) [CPD-295] | 30 nM | 340 nM | 1380 nM | 6290 nM | 18000 nM |  |
| COc1cc(CO)cc(NC(C(=O)c2c[nH]c3ccc(F)cc23)c2ccccc2)c1 (stereo not shown) [CPD-296] | 50 nM | 990 nM | 1830 nM | 3310 nM | 31000 nM |  |
| COc1cc(NC(C(=O)c2nn(C)c3ccccc23)c2ccccc2)cc(OCCO)c1 (stereo not shown) [CPD-298] | 420 nM | 2020 nM | 5790 nM | 4520 nM | > 116000 nM |  |
| COc1cccc(NC(C(=O)c2c[nH]c3ccccc23)c2ccccn2)c1 (stereo not shown) [CPD-301] | 80 nM | 1120 nM | 500 nM | 4250 nM | 89000 nM |  |
| COc1cc(NC(C(=O)c2cn(C)c3ccccc23)c2ccccc2)cc(OCCO)c1 (stereo not shown) [CPD-305] | 90 nM | 440 nM | 1020 nM | 2560 nM | > 116000 nM |  |
| COc1cccc(NC(C(=O)c2c[nH]c3ccccc23)c2cncc(C)c2)c1 (stereo not shown) [CPD-309] | 540 nM | 620 nM | 700 nM | 2800 nM | 74000 nM |  |
| COc1ccc(C(Nc2cccc(OC)c2)C(=O)c2c[nH]c3ccccc23)nc1 (stereo not shown) [CPD-310] | 60 nM | 1110 nM | 650 nM | 9370 nM | 25000 nM |  |
